Experimental findings from patent US11897876B2, “Isoxazolidines as RIPK1 inhibitors and use thereof” (GENZYME CORPORATION, priority 2022, dated 2024) are described below.

For the assay, the system named is U937 cells. The assay can be described thus: Cellular assay in U937 cells, TNFα/zVAD.fmk-induced cell death (necroptosis), MTS readout. It is filed as cell-based. As to conditions: Homo sapiens, U-937. An excerpt: Cellular Assay in U937 Cells to Measure the Activity of RIPK1-Inhibitors on Cell Death (Necroptosis).
Upon TNF-Receptor I ligation, Ser/Thr kinase RIPK1 is recruited to a transient receptor complex I. Upon modification of RIPK1 which promotes activation of RIPK1, complex […] can form, that involves recruitment of RIPK3 and MLKL (mixed lineage-kinase domain-like protein) which then translocates from the cytosol to the plasma membrane to execute cell death (Cai, Z. et al, Nat. Cell Biol. (2014)16:55-65).
Cell death was quantified in 96 well plates by determination of the amount of live cell using a CellTiter 96 AQueous reagent (Promega), a calorimetric method to measure the amount of live cells by reducing tetrazolium compound [3-(4,5-dimethylthiazol-2-yl)-5-(3-carboxymethoxyphenyl)-2-(4-sulfophenyl)-2H-tetrazolium, inner salt; MTS] into formazan. Absorbance of formazan was read at 490 nm. The inhibitory activity of the test compound was quantified in a concentration response curve (CRC) experiment. Compounds were obtained as 10 mM stock solutions and were diluted 1 to 10 volumes with DMSO to yield a 1 mM solution. From this solution 2 μl were diluted with 998 μl growth medium. 100 μl of 2 μM compound solution was further diluted sequentially with a dilution factor of 2.5 by adding 150 μl growth medium. A total of 10 concentrations were tested ranging from 10 μM to 0.26 nM or from 1 μM to 0.07 nM.
U937 cells were cultured in RPM11640 Glutamax and 10% heat inactivated FBS. 50 μl cell suspension containing 1×10^6 cells/ml supplemented with 50 μM zVAD.fmk (Benzyloxycarbonyl-Val-Ala-Asp (OMe) fluoromethylketone) and 100 ng/ml recombinant human TNFα were dispensed in each well of a 96-well plate. 50 μl of compound dilutions (see above) were added and the cell suspension incubated overnight (18 to 24 hrs) at 37° C., 5% CO2 in a humidified atmosphere (95% rH). High (no compound) and low control (no TNFα, zVAD.fmk) were tested with 7 replicates; all compound concentrations were tested in duplicates on each experimental plate.
CellTiter 96 Aqueous reagent was mixed (100 μl PMS (phenazine methosulfate) solution/2 ml MTS (3-(4,5-[…])-5-(3-carboxymethoxyphenyl)-2-(4-sulfophenyl)-2H-tetrazolium, inner salt) solution) and 20 μl were added per well. After 4 hrs incubation at 37° C. (5% CO2 95% rH) optical density was measured at 490 nm on a microplate reader (Tecan Infinite M1000).
The % inhibition is expressed as percentage of the maximal inhibition value obtained in the absence of TNFα/zVAD.fmc.

Setting [1] is: U937 cells, 100 ng/ml TNFα + 50 μM zVAD.fmk, overnight (18 to 24 hrs), read-out: U937 IC50.
[2] abbreviates: own data, read-out: IC50 (U937).

Like-named read-outs stand apart in the source and are kept apart here.

On to `Cc1ncn(-c2cc(N3CCC(C(=O)N4OCC[C@H]4c4cc(F)cc(C#N)c4)CC3)ncn2)n1` [Example 10, 3-Fluoro-5-[(3S)-2-[1-[6-(3-methyl-1,2,4-triazol-1-yl)pyrimidin-4-yl]piperidine-4-carbonyl]isoxazolidin-3-yl]benzonitrile], for which the IC50 under setting [1] is 2 nM.
The same measure, in the same setting: for `Cn1nccc1-c1cc(N2CCC(C(=O)N3OCC[C@H]3c3cc(F)cc(F)c3)CC2)ncn1` [Example 4, [(3S)-3-(3,5-Difluorophenyl)isoxazolidin-2-yl]-[1-[6-(2-methylpyrazol-3-yl)pyrimidin-4-yl]-4-piperidyl]methanone] the value was 5 nM.
`Cc1nnc(-c2cc(N3CCC(C(=O)N4OCC[C@H]4c4ccccc4)CC3)ncn2)o1` [Comparator Example D, [1-[6-(5-Methyl-1,3,4-oxadiazol-2-yl)pyrimidin-4-yl]-4-piperidyl]-[(3S)-3-phenylisoxazolidin-2-yl]methanone, reference compound]: the IC50 is, setting by setting: under setting [1], 92 nM; under setting [2], 92 nM.
Regarding `Cc1nc(C2CC2)cn1-c1cc(N2CCC(C(=O)N3OCC[C@H]3c3cc(F)cc(C#N)c3)CC2)ncn1` [Example 7, 3-[(3S)-2-[1-[6-(4-Cyclopropyl-2-methyl-imidazol-1-yl)pyrimidin-4-yl]piperidine-4-carbonyl]isoxazolidin-3-yl]-5-fluoro-benzonitrile], the IC50 under setting [1] is 3.6 nM.
For the molecule `O=C(C1CCN(c2nccc(-c3ccccc3)n2)CC1)N1N=CCC1c1ccccc1` (centres unmarked) [Comparator Example A, (3-Phenyl-3,4-dihydropyrazol-2-yl)-[1-(4-phenylpyrimidin-2-yl)-4-piperidyl]methanone, reference compound], the IC50 was found to be 8 nM under setting [1] and 8 nM under setting [2].
On to `Cn1nccc1-c1ncnc(N2CCC(C(=O)N3OCC[C@H]3c3cc(F)cc(F)c3)CC2)c1F` [Example 15, [(3S)-3-(3,5-Difluorophenyl)isoxazolidin-2-yl]-[1-[5-fluoro-6-(2-methylpyrazol-3-yl)pyrimidin-4-yl]-4-piperidyl]methanone], for which, under setting [1], the IC50 amounted to 0.4 nM.
Turning to `Cn1nncc1-c1cc(N2CCC(C(=O)N3OCC[C@H]3c3cc(F)cc(C#N)c3)CC2)ncn1` [Example 12, 3-Fluoro-5-[(3S)-2-[1-[6-(3-methyltriazol-4-yl)pyrimidin-4-yl]piperidine-4-carbonyl]isoxazolidin-3-yl]benzonitrile], the IC50 under setting [1] worked out at 7 nM.
Still for that read-out and setting: for `Cn1nccc1-c1cc(N2CCC(C(=O)N3OCC[C@H]3c3cc(F)cc(Cl)c3)CC2)ncn1` [Example 5, [(3S)-3-(3-Chloro-5-fluoro-phenyl)isoxazolidin-2-yl]-[1-[6-(2-methylpyrazol-3-yl)pyrimidin-4-yl]-4-piperidyl]methanone] the value was 3 nM.
For `Cc1nnc(-c2cc(N3CCC(C(=O)N4OCC[C@H]4c4cc(F)cc(C#N)c4)CC3)ncn2)o1` [Comparator Example E, 3-Fluoro-5-[(3S)-2-[1-[6-(5-methyl-1,3,4-oxadiazol-2-yl)pyrimidin-4-yl]piperidine-4-carbonyl]isoxazolidin-3-yl]benzonitrile, reference compound], the IC50 reads like this: under setting [1], 197 nM; under setting [2], 197 nM.
On to `Cc1cnn(-c2ncnc(N3CCC(C(=O)N4OCC[C@H]4c4cc(F)c(C)c(C#N)c4)CC3)c2F)c1` [Example 14, 3-Fluoro-5-[(3S)-2-[1-[5-fluoro-6-(4-methylpyrazol-1-yl)pyrimidin-4-yl]piperidine-4-carbonyl]isoxazolidin-3-yl]-2-methyl-benzonitrile], for which, under setting [1], the IC50 came to 3.4 nM.
For `Cn1nccc1-c1cc(N2CCC(C(=O)N3OCC[C@H]3c3cc(F)cc(C#N)c3)CC2)ncn1` [Example 3, 3-Fluoro-5-[(3S)-2-[1-[6-(2-methylpyrazol-3-yl)pyrimidin-4-yl]piperidine-4-carbonyl]isoxazolidin-3-yl]benzonitrile], under setting [1], the IC50 came out at 8.1 nM.
Regarding `Cc1nccn1-c1ncnc(N2CCC(C(=O)N3OCC[C@H]3c3cc(F)cc(C#N)c3)CC2)c1F` [Example 13, 3-Fluoro-5-[(3S)-2-[1-[5-fluoro-6-(2-methylimidazol-1-yl)pyrimidin-4-yl]piperidine-4-carbonyl]isoxazolidin-3-yl]benzonitrile], the IC50 under setting [1] turned out to be 4.3 nM.
With `Cc1c(F)cc([C@@H]2CCON2C(=O)C2CCN(c3cc(-n4cc(C5CC5)nc4C)ncn3)CC2)cc1C#N` [Example 8, 5-[(3S)-2-[1-[6-(4-Cyclopropyl-2-methyl-imidazol-1-yl)pyrimidin-4-yl]piperidine-4-carbonyl]isoxazolidin-3-yl]-3-fluoro-2-methyl-benzonitrile], the IC50 by setting is: under setting [1], 1 nM; under setting [2], 1 nM.
Turning to `Cc1nnc(-c2cc(N3CCC(C(=O)N4N=CC[C@H]4c4ccccc4)CC3)ncn2)o1` [Comparator Example C, [1-[6-(5-Methyl-1,3,4-oxadiazol-2-yl)pyrimidin-4-yl]-4-piperidyl]-[(3S)-3-phenyl-3,4-dihydropyrazol-2-yl]methanone, reference compound], the IC50 by setting is: under setting [1], 59 nM; (own data, read-out: pIC50 (U937) (converted)) 59 nM.
As to `Cc1ncnn1-c1cc(N2CCC(C(=O)N3OCC[C@H]3c3cc(F)cc(C#N)c3)CC2)ncn1` [Example 11, 3-Fluoro-5-[(3S)-2-[1-[6-(5-methyl-1,2,4-triazol-1-yl)pyrimidin-4-yl]piperidine-4-carbonyl]isoxazolidin-3-yl]benzonitrile], the IC50 under setting [1] was 9.3 nM.
For the molecule `O=C(C1CCN(c2nccc(-c3ccccc3)n2)CC1)N1OCC[C@H]1c1ccccc1` [Comparator Example B, [(3S)-3-Phenylisoxazolidin-2-yl]-[1-(4-phenylpyrimidin-2-yl)-4-piperidyl]methanone, reference compound], the IC50 reads like this: under setting [1], 9.4 nM; under setting [2], 9 nM.
Take `Cc1cc(-c2cc(N3CCC(C(=O)N4OCC[C@H]4c4cc(F)cc(C#N)c4)CC3)ncn2)n(C)n1` [Example 9, 3-[(3S)-2-[1-[6-(2,5-Dimethylpyrazol-3-yl)pyrimidin-4-yl]piperidine-4-carbonyl]isoxazolidin-3-yl]-5-fluoro-benzonitrile]: the IC50 under setting [1] was 15 nM.
The same measure, in the same setting: for `Cc1nccn1-c1cc(N2CCC(C(=O)N3OCC[C@H]3c3cc(F)cc(C#N)c3)CC2)ncn1` [Example 1, 3-Fluoro-5-[(3S)-2-[1-[6-(2-methylimidazol-1-yl)pyrimidin-4-yl]piperidine-4-carbonyl]isoxazolidin-3-yl]benzonitrile] the value was 5.9 nM; for `Cc1c(F)cc([C@@H]2CCON2C(=O)C2CCN(c3cc(-n4ccnc4C)ncn3)CC2)cc1C#N` [Example 2, 3-Fluoro-2-methyl-5-[(3S)-2-[1-[6-(2-methylimidazol-1-yl)pyrimidin-4-yl]piperidine-4-carbonyl]isoxazolidin-3-yl]benzonitrile], 3.8 nM.
For the molecule `Cc1n[nH]cc1-c1cc(N2CCC(C(=O)N3OCC[C@H]3c3cc(F)cc(C#N)c3)CC2)ncn1` [Example 6, 3-Fluoro-5-[(3S)-2-[1-[6-(3-methyl-1H-pyrazol-4-yl)pyrimidin-4-yl]piperidine-4-carbonyl]isoxazolidin-3-yl]benzonitrile], the IC50 under setting [1] worked out at 11.7 nM.
